Laboratory results published in patent US6962909B2, “Treatment of neovascularization disorders with squalimine” (Genaera Corporation, priority 1995, dated 2005).

Key:
[1] = system: vitelline capillaries of 3- to 5-day chick embryo; assay: Chick embryo vitelline capillary regression assay; format: in vivo; parameters: key to Vascular reactivity (capillary regression): + = Vascular reactivity; 0 = No vascular reactivity; +/− = Equivocal reactivity; conditions: for Vascular reactivity (capillary regression): 60 minutes
Method in brief: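 Compounds were applied onto the 3- to 5-day embryo in 0.1 ml 15% Ficol 400 in PBS. Vascular regression was assessed visually after 60 min, scoring capillary constriction and pinching-off into enclosed blood-island-like sacs.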

[2] = system: Stage 59-60 Xenopus tadpoles; assay: Xenopus tadpole assay; format: in vivo, Xenopus laevis; conditions: 10 μg/ml in water; for Pharmacological response observed in tadpole: about 1 hour
Method in brief: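 Stage 59-60 Xenopus laevis tadpoles placed in compound dissolved in distilled water at 10 μg/ml, allowing oral uptake and systemic exposure. After 1 hour, capillary blood-flow occlusion in the tail was scored by inverted microscopy (~100×) plus gross observation.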

[3] = system: B16 melanoma; assay: Growth of B16 melanoma in C57B mice; format: in vivo
Experimental: The growth of B16 melanoma in C57B mice is dependent upon neovascularization.
Using the growth of B16 melanoma cells in C57B mice, a recognized model for the evaluation of inhibitors of angiogenesis on the growth of cancers, the effects of subcutaneous, intraperitoneal and oral administration of squalamine were evaluated.
Animals were implanted with B16 melanoma followed by treatment with compound 1436 or 1256 administered in a combined schedule or separately. […] Thus, a combination of these two compounds achieves a therapeutic benefit in tumors dependent on neovascularization that may prevent metastatic spread.

[4] = system: PHA-stimulated human lymphocytes; assay: Inhibition of mitogen-stimulated growth of human T-cells; format: cell-based; conditions: 72 hours
Experimental: Human heparinized blood, freshly collected, was introduced into tissue culture flasks containing 10 μg/ml phytohaemagglutinin (PHA) in RPMI medium with 10% FCS. Various purified steroids were introduced subsequently at concentrations of 1, 5, and 10 μg/ml. Cultures were incubated for 72 hours, after which time colcemid was added to 1 μg/ml. Cultures were maintained for an additional 2 hours, and cells collected. Mitotic figures were estimated using standard cytochemical techniques, following Giemsa staining.

[5] = Fasting blood glucose in mice; format: in vivo; conditions: for Fasting Blood Glucose Mean + SEM: male CD-1 mice, 2 × 10 mg/kg i.v. (total 20 mg/kg), overnight fast, blood 30 min. after 2d dose, 1437 and 1256 in H2O, 1436 in D5W
Experimental: To study the effect of steroid administrator or the NHE responsible for secretion of insulin, several of the aminosterols from shark liver were administered to fasting mice. Male CD-1 mice were assigned to one of four treatment groups. Whole blood glucose was tested using glucometer (Lifescan Glucometer II and One Touch test strips). Statistical analysis was via one-way analysis of variance (ANOVA) followed by subsequent Bonferonni's t-test.

[6] = system: VX2 carcinoma; assay: Tumor-induced corneal neovascularization in rabbits; format: in vivo, rabbit; conditions: pellet of ELVAX 40 P
Description: The implantation of VX2 carcinoma into the rabbit cornea results in the induction of new blood vessels within several days (Tamargo et al., Cancer Research 51, 1991, 672-675). It is believed that this carcinoma secretes growth factors that stimulate new blood-vessel growth. Thus, this model is indicative in vivo evidence of therapeutic utility in the treatment of pathological disorders of vascularization, including the metastatic spread of tumors, diabetic retinopathy, macular degeneration, and rheumatoid arthritis.
This experiment followed the published protocol—tumor was implanted adjacent to a polymer containing a concentration of the agent to be evaluated. The polymer releases the agent slowly in the immediate neighborhood of the tumor, providing sustained high local concentrations of the agent. In this experiment, squalamine introduced into a pellet of ELVAX 40 P (DuPont, Wilmington, Del.) inhibited new blood vessel formation by about 60% at days 7 and 14, and by about 25% at day 21.

| Compound | Vascular reactivity (capillary regression) ([1]; 0.001 μg applied) | Vascular reactivity (capillary regression) ([1]; 0.01 μg applied) | Vascular reactivity (capillary regression) ([1]; 0.1 μg applied) | Vascular reactivity (capillary regression) ([1]; 1 μg applied) | Vascular reactivity (capillary regression) ([1]; 10 μg applied) | Pharmacological category in tadpole assay (similarity to a reference steroid) [2] | Time to death of tadpole [2] | Pharmacological response observed in tadpole [2] | Inhibition of PHA-stimulated human lymphocytes ([4]; 1 μg/ml) [% control] | Inhibition of PHA-stimulated human lymphocytes ([4]; 5 μg/ml) [% control] | Inhibition of PHA-stimulated human lymphocytes ([4]; 10 μg/ml) [% control] | Fasting Blood Glucose Mean + SEM [5] [mg/dL] | other results |
| --- | --- | --- | --- | --- | --- | --- | --- | --- | --- | --- | --- | --- | --- |
| CC(CC[C@@H](OS(=O)(=O)O)C(C)C)[C@H]1CCC2C3C(CC[C@@]21C)[C@@]1(C)CC[C@H](NCCCNCCCCNCCCN)C[C@@H]1C[C@H]3O (stereo partly drawn) [Compound 1436] | +/− | + | + | + | + | common vascular occlusive effect | about 2 hours | Gradual reduction in overall activity. Heart beat remained strong, suggesting nervous system depression. Melanocytes over head and tail began to swell, first exhibiting visibly distinct nuclei, followed by rupture into fragments | 20 | 50 | 80 | 105 ± 8.0 | Effect on chick embryo capillary bed ([1]; in vivo): causes vitelline capillary regression with about the same potency as squalamine; Pharmacological response observed in tadpole ([2]; listed as compound 1436): dramatic disruption of melanocytes over its head, trunk, and tail, along with depression of its nervous system; Impact on tumor volume ([3]; compound 1436 10 mg/kg/every 3 days alone): no significant impact on tumor volume; Effect on blood glucose ([5]; intravenous, 1436 in D5W (5% glucose), 1437 in water): caused hyperglycemia in mice |
| CC(CC[C@@H](OS(=O)(=O)O)C(C)C)[C@H]1CCC2C3C(CC[C@@]21C)[C@@]1(C)CC[C@H](NCCCNCCCCN)C[C@@H]1C[C@H]3O (stereo partly drawn) [squalamine] | 0 | + | + | + | + | common vascular occlusive effect | ≤ 2 h | blood flow through the capillaries of the tail shut down | 3 | 8 | 10 | 65 ± 7.3 | Pharmacological response observed in tadpole ([2]; listed as Compound 1256): Vascular occlusion in fine capillaries of tail; Body weight and hematologic parameters ([3]; during squalamine treatment): no significant depression; Impact on tumor volume ([3]; squalamine 5 mg/kg/day alone): no significant impact on tumor volume; Suppression of tumor volume ([3]; squalamine intraperitoneally): dose-dependent suppression of tumor volume; Suppression of tumor volume ([3]; squalamine orally): dose-dependent suppression of tumor volume; Suppression of tumor volume ([3]; squalamine subcutaneously): dose-dependent suppression of tumor volume; Inhibition of new blood vessel formation ([6]; day 21): about 25%; Inhibition of new blood vessel formation ([6]; days 7 and 14): about 60% |
